Assay results reported in patent US4497803A, “Inclusion compound of lankacidin-group antibiotic and use thereof” (priority 1982, dated 1985).
≈ marks a conversion by molar mass, not a printed value. Read-outs that look alike come from different tables or passages of the source.

How the values were obtained:
[1] = Solubility of C8-P and C14-P in CD solution, shaken one hour (Example 2); format: physicochemical
Protocol: (§1) Powdery lankacidin C was added to an aqueous solution of cyclodextrin (hereinafter referred to as "CD") to have 4 mg/ml of the lankacidin C contained. After the mixture was stirred with a mixer, it was shaken at 5° C. for 2 hours, and passed through filter paper. The absorbancy of the filtrate was measured at 227-229 nm to determine concentration of the lankacidin C.
Solubilities of lankacidin C 8-propionate (hereinafter referred to as "C8-P"), and lankacidin C 14-propionate (hereinafter referred to as "C14-P") in a solution of CD were measured in the same manner as that of Example 1 except that the shaking was continued for one hour.

[2] = Solubility of lankacidin-group in β-CD solution (10^-2 Mol/l), shaken 30 minutes to one hour (Example 4); format: physicochemical; settings: for solubility: read-out: Solubility; for ratio: Solubility in a 10^-2 Mol/l solution of CD/solubility in water: β-CD 10^-2 Mol/l vs water
Protocol: as §1
The solubility of lankacidin-group in a solution of β-CD (10^-2 Mol/l) were measured in the same manner as that of Example 1 except that the shaking was continued for 30 minutes to one hour.

[3] = Solubility in β-CD solution, shaken 16 hours (Example 3); format: physicochemical
Protocol: as §1
The solubilities of lankacidin A, lankacidin C and lankacidinol in a β-CD solution were measured in the same manner as that of Example 1 except that the shaking was continued for 16 hours.

[4] = tested on: St. aureus 209P; assay: Stability of inclusion compound of lankacidin-group (24° C., for 6 days): antibacterial activity by paper disk assay; format: cell-based; settings: methanol, 100 μg/ml
Protocol: The inclusion compound of the present invention is stable in an aqueous solution, although it splits into lankacidin-group moiety and cyclodextrins moiety, when it is in the form of solution or powder, by contacting it with organic solvents (e.g., ethyl acetate, methyl isobutyl ketone) or various carriers (e.g., silica gel, high-porous resins). […] In comparing the antibacterial activity, concentrations of the inclusion compound are calculated in terms of lankacidin-group compound from which the inclusion compound is prepared.
Stability of inclusion compound of lankacidin-group
*1 Paper disk assay using Trypticase soy agar (Baltimore Biologicals Ltd.
U.S.A.) as test culture media.
*2 1000 μg/ml, Lankacidingroup is stable in methanol.
*3 Aqueous solution of the inclusion compound with cyclodextrin (1000
μg/ml calculated in terms of lankacidingroup)

[5] = Stability of lankacidin A and C in methanolic aqueous solutions, 40° C., HPLC (Example 7); format: physicochemical; settings: for Residual rate / remaining at 6 h: 10 μg/ml, pH 7.0, 40° C.; for Residual rate: 0 hr; for remaining at 6 h: read-out: Residual rate
Protocol: 5 ml each of a methanolic solution containing lankacidin A or C in a concentration of 100 μg per ml was added to 45 ml each of pH 4.5 and pH 7.0 buffer solutions and a buffer solution containing β-cyclodextrin.
Each mixture was placed in a glass vessel, and then sealed. While the mixtures were kept in the vessel at 40° C., 5 ml each was taken out from time to time and extracted with ethyl acetate. The organic layers were dried over anhydrous sodium sulfate and the concentrations of the lankacidin A or C was measured with high-performance liquid chromatography (HPLC).
Apparatus: Water Associates ALC/GPC 240 (Waters Associates Inc., U.S.A.)
Column: μPoracil 30 cm×3.9 mm.phi.
Eluent: n-Hexane: isopropyl alcohol: acetic acid (75:25:0.2).

[6] = Solubility of inclusion compound in water; format: physicochemical
Protocol: The lankacidin-group is added to each of solutions containing various amounts of cyclodextrin. The minimum concentration of cyclodextrin which dissolves the maximum amount of the lankacidin-group compound and practical concentrations thereof are determined on the basis of amounts of the lankacidin-group compound dissolved in the cyclodextrin solutions. Then, the molar ratio of cyclodextrin to lankacidin-group compound is calculated by the following equation:
Molar ratio=[Molarity of cyclodextrin]:[(Saturation molarity of lankacidin-group compound in a certain concentration of cyclodextrin-solution)-(saturation molarity of lankacidin-group compound in an aqueous solution)].
Moreover, a large amount of the present inclusion compound is dissolved in water and it is kept stably therein. Solubility of the inclusion compound in water is greater than that of landacidin-group compounds in water, when the amount of the inclusion compound dissolved is calculated in terms of lankacidin-group compound, and than saturation concentration of cyclodextrin in water so far as cyclodextrin contained in the inclusion compound is concerned (Table 2).
(1) Solubility of lankacidingroup in water.
(2) Solubility of lankacidingroup in M/100 cyclodextrin solution.
(3) Concentration of cyclodextrin of (2).
(4) Solubility (maximum) of the present inclusion compound (calculated in
terms of lankacidingroup contained) in water.
(5) Concentration of cyclodextrin contained in the inclusion compound of […]

[7] = Solubility of lankacidin C in aqueous cyclodextrin solution, shaken at 5° C. for 2 hours (Example 1); format: physicochemical
Protocol: as §1

[8] = aqueous β-cd solution, β-CD 10^-2 Mol/l
[9] = aqueous β-cd solution, β-CD 10^-3 Mol/l
[10] = aqueous β-cd solution, β-CD 10^-4 Mol/l
[11] = aqueous γ-cd solution, γ-CD 10^-2 Mol/l
[12] = aqueous γ-cd solution, γ-CD 10^-3 Mol/l
[13] = aqueous γ-cd solution, γ-CD 10^-4 Mol/l
[14] = aqueous β-cyclodextrin solution, β-CD 10^-2 Mol/l

CCC(=O)OC1C=CC(C)=CC(NC(=O)C(C)=O)C2(C)C(=O)OC(CC(O)C=CC(C)=CC1)C(C)C2=O (centres unmarked) [C8-P, lankacidin C 8-propionate]
Solubility in CD solution, C8-P compared with C14-P ([1]; CD solutions): better solubility than that of C14-P
solubility at 1 h [1, 8]: 3840 µg/mL (≈ 7450 µM)
solubility at 1 h [1, 9]: 328 µg/mL (≈ 636 µM)
solubility at 1 h [1, 10]: 46 µg/mL (≈ 89.2 µM)
solubility at 1 h [1, 11]: 1610 µg/mL (≈ 3120 µM)
solubility at 1 h [1, 12]: 249 µg/mL (≈ 483 µM)
solubility at 1 h [1, 13]: 54 µg/mL (≈ 105 µM)
solubility at 1 h ([1]; water, β-CD, CD 0 Mol/l): 18 µg/mL (≈ 34.9 µM)
solubility at 1 h ([1]; water, γ-CD, CD 0 Mol/l): 19 µg/mL (≈ 36.9 µM)

CCC(=O)OC1C=CC(C)=CCC(O)C=CC(C)=CC(NC(=O)C(C)=O)C2(C)C(=O)OC(C1)C(C)C2=O (centres unmarked) [C14-P, lankacidin C 14-propionate]
solubility at 1 h [1, 8]: 159 µg/mL (≈ 308 µM)
solubility at 1 h [1, 9]: 67 µg/mL (≈ 130 µM)
solubility at 1 h [1, 10]: 21 µg/mL (≈ 40.7 µM)
solubility at 1 h [1, 11]: 273 µg/mL (≈ 529 µM)
solubility at 1 h [1, 12]: 114 µg/mL (≈ 221 µM)
solubility at 1 h [1, 13]: 35 µg/mL (≈ 67.9 µM)
solubility at 1 h ([1]; water, β-CD, CD 0 Mol/l): 19 µg/mL (≈ 36.9 µM)
solubility at 1 h ([1]; water, γ-CD, CD 0 Mol/l): 19 µg/mL (≈ 36.9 µM)

CC(=O)OC1C=CC(C)=CC(NC(=O)C(C)=O)C2(C)C(=O)OC(CC(OC(C)=O)C=CC(C)=CC1)C(C)C2=O (centres unmarked) [Lankacidin C 8,14-diacetate, lankacidin C 8,14-diacetate]
solubility [2, 14]: 681 µg/mL (≈ 1250 µM)
solubility ([2]; β-CD 0 Mol/l (water)): 16.2 µg/mL (≈ 29.8 µM)
ratio: Solubility in a 10^-2 Mol/l solution of CD/solubility in water [2]: 42.0

CC(=O)OC1C=CC(C)=CC(NC(=O)C(C)=O)C2(C)C(=O)OC(CC(O)C=CC(C)=CC1)C(C)C2=O (centres unmarked) [Lankacidin C 8-acetate, lankacidin C 8-acetate]
solubility [2, 14]: 2770 µg/mL (≈ 5520 µM)
solubility ([2]; β-CD 0 Mol/l (water)): 74.3 µg/mL (≈ 148 µM)
ratio: Solubility in a 10^-2 Mol/l solution of CD/solubility in water [2]: 37.3

CCCC(=O)OC1C=CC(C)=CC(NC(=O)C(C)=O)C2(C)C(=O)OC(CC(O)C=CC(C)=CC1)C(C)C2=O (centres unmarked) [Lankacidin C 8-butylate]
solubility [2, 14]: 404 µg/mL (≈ 763 µM)
solubility ([2]; β-CD 0 Mol/l (water)): 9 µg/mL (≈ 17 µM)
ratio: Solubility in a 10^-2 Mol/l solution of CD/solubility in water [2]: 44.9

CCCC(=O)OC1C=CC(C)=CCC(O)C=CC(C)=CC(NC(=O)C(C)=O)C2(C)C(=O)OC(C1)C(C)C2=O (centres unmarked) [Lankacidin C 14-butylate]
solubility [2, 14]: 118 µg/mL (≈ 223 µM)
solubility ([2]; β-CD 0 Mol/l (water)): 17 µg/mL (≈ 32.1 µM)
ratio: Solubility in a 10^-2 Mol/l solution of CD/solubility in water [2]: 6.94

CC(=O)C(=O)NC1C=C(C)C=CC(O)CC=C(C)C=CC(O)CC2OC(=O)C1(C)C(=O)C2C (centres unmarked) [Lankacidin C, lankacidin C]
solubility at 16 h ([3]; aqueous β-cd solution, β-CD 2 × 10^-3 Mol/l): 934 µg/mL (≈ 2030 µM)
solubility at 16 h ([3]; aqueous β-cd solution, β-CD 2 × 10^-4 Mol/l): 304 µg/mL (≈ 662 µM)
solubility at 16 h ([3]; aqueous β-cd solution, β-CD 5 × 10^-3 Mol/l): 1780 µg/mL (≈ 3870 µM)
solubility at 16 h ([3]; aqueous β-cd solution, β-CD 5 × 10^-4 Mol/l): 409 µg/mL (≈ 890 µM)
solubility at 16 h [3, 8]: 3350 µg/mL (≈ 7290 µM)
solubility at 16 h [3, 9]: 566 µg/mL (≈ 1230 µM)
solubility at 16 h [3, 10]: 262 µg/mL (≈ 570 µM)
Solubility in β-CD solution as function of β-CD concentration ([3]; from the vicinity of 10^-3 Mol/l of β-CD): increase in proportion to the concentration of β-CD
solubility at 16 h ([3]; water, β-CD 0 Mol/l): 237 µg/mL (≈ 516 µM)
solubility ([3]; β-CD 10^-3 Mol/l, 960 min): 715 µg/mL (≈ 1560 µM)
Antibacterial activity, inhibition diameter ([4]; 0 day): 28.25 mm
Antibacterial activity, inhibition diameter ([4]; 3 days at 24° C.): 29.5 mm
Antibacterial activity, inhibition diameter ([4]; 6 days at 24° C.): 29.5 mm
Residual rate ([5]; no β-cyclodextrin): 100%
Residual rate ([5]; β-cyclodextrin 10 mg/ml): 100%
Effect of β-cyclodextrin on stability in methanolic aqueous solutions ([5]; 1000 times β-CD by weight added): increased stabilities
remaining at 6 h ([5]; methanolic aqueous buffer, no β-cyclodextrin): 43.7%
remaining at 6 h ([5]; methanolic buffer with β-cyclodextrin, β-cyclodextrin 10 mg/ml): 88.2%
solubility ([6]; m/100 cyclodextrin solution, M/100 cyclodextrin, (3) cyclodextrin 11.3 mg/ml, read-out: (2) Solubility of lankacidin-group in M/100 cyclodextrin solution): 3540 µg/mL (≈ 7700 µM)
solubility ([6]; water, read-out: (1) Solubility of lankacidin-group in water): 268 µg/mL (≈ 583 µM)
solubility at 2 h [7, 8]: 3730 µg/mL (≈ 8120 µM)
solubility at 2 h [7, 9]: 650 µg/mL (≈ 1410 µM)
solubility at 2 h [7, 10]: 280 µg/mL (≈ 609 µM)
solubility at 2 h [7, 11]: 2390 µg/mL (≈ 5200 µM)
solubility at 2 h [7, 12]: 460 µg/mL (≈ 1000 µM)
solubility at 2 h [7, 13]: 260 µg/mL (≈ 566 µM)
solubility at 2 h ([7]; aqueous γ-cyclodextrin solution, γ-CD 10^-1 Mol/l): 3790 µg/mL (≈ 8250 µM)
solubility at 2 h ([7]; water, β-CD, CD 0 Mol/l): 260 µg/mL (≈ 566 µM)
solubility at 2 h ([7]; water, γ-CD, CD 0 Mol/l): 260 µg/mL (≈ 566 µM)
Solubility in CD solution ([7]; β-CD and γ-CD solution): high solubility
